Tests used:
Experiment in all cases: relative viability (nuclei count vs DMSO), 5 days (fraction); higher = more cells survive
4EGI-1 + Navitoclax = compound: O=C(O)C(Cc1ccccc1[N+](=O)[O-])=NNc1nc(-c2ccc(Cl)c(Cl)c2)cs1 (mixture of isomers) [4EGI-1] + CC1(C)CCC(c2ccc(Cl)cc2)=C(CN2CCN(c3ccc(C(=O)NS(=O)(=O)c4ccc(N[C@H](CCN5CCOCC5)CSc5ccccc5)c(S(=O)(=O)C(F)(F)F)c4)cc3)CC2)C1 [Navitoclax] (partner 0.5 µM)
Procedure, shortened: (§1)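 Lung cancer cell lines in 1536-well plates were dosed by pin tool the day after seeding, either with one drug alone or with a fixed anchor-drug dose plus five library-drug doses (not always all listed) in √10 steps. After 5 days, cells were fixed and their nuclei stained in one step (final 0.05% Triton X-100, 1% formaldehyde, 1 ug/ml Hoechst), then counted on 4× images. Relative viability is the nuclei count in treated wells divided by that in vehicle wells. Values are medians of duplicate plates.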

XMD8-85 + Trametinib = compound: CN1CCN(CC1)C2=CC(=C(C=C2)NC3=NC=C4C(=N3)N(C5=CC=CC=C5C(=O)N4C)C)OC [XMD8-85] + CC(=O)Nc1cccc(-n2c(=O)n(C3CC3)c(=O)c3c(Nc4ccc(I)cc4F)n(C)c(=O)c(C)c32)c1 [Trametinib] (partner 0.02 µM)
Procedure, shortened: as §1

XMD8-85 + Decitabine = compound: CN1CCN(CC1)C2=CC(=C(C=C2)NC3=NC=C4C(=N3)N(C5=CC=CC=C5C(=O)N4C)C)OC [XMD8-85] + Nc1ncn([C@H]2C[C@H](O)[C@@H](CO)O2)c(=O)n1 [Decitabine] (partner 2 µM)
Procedure, shortened: as §1

XMD8-85 + Phenformin = compound: CN1CCN(CC1)C2=CC(=C(C=C2)NC3=NC=C4C(=N3)N(C5=CC=CC=C5C(=O)N4C)C)OC [XMD8-85] + N=C(N)NC(=N)NCCc1ccccc1 [Phenformin] (partner 250 µM)
Procedure, shortened: as §1

| Cell Line | relative viability (4EGI-1 + Navitoclax; first compound 0.5 µM) | relative viability (4EGI-1 + Navitoclax; first compound 1.581 µM) | relative viability (4EGI-1 + Navitoclax; first compound 5 µM) | relative viability (4EGI-1 + Navitoclax; first compound 15.81 µM) | relative viability (4EGI-1 + Navitoclax; first compound 50 µM) | relative viability (XMD8-85 + Trametinib; first compound 0.08 µM) | relative viability (XMD8-85 + Trametinib; first compound 0.253 µM) | relative viability (XMD8-85 + Trametinib; first compound 0.8 µM) | relative viability (XMD8-85 + Trametinib; first compound 2.53 µM) | relative viability (XMD8-85 + Trametinib; first compound 8 µM) | relative viability (XMD8-85 + Decitabine; first compound 0.08 µM) | relative viability (XMD8-85 + Decitabine; first compound 0.253 µM) | relative viability (XMD8-85 + Decitabine; first compound 0.8 µM) | relative viability (XMD8-85 + Decitabine; first compound 2.53 µM) | relative viability (XMD8-85 + Decitabine; first compound 8 µM) | relative viability (XMD8-85 + Phenformin; first compound 0.08 µM) | relative viability (XMD8-85 + Phenformin; first compound 0.253 µM) | relative viability (XMD8-85 + Phenformin; first compound 0.8 µM) | relative viability (XMD8-85 + Phenformin; first compound 2.53 µM) | relative viability (XMD8-85 + Phenformin; first compound 8 µM) |
| --- | --- | --- | --- | --- | --- | --- | --- | --- | --- | --- | --- | --- | --- | --- | --- | --- | --- | --- | --- | --- |
| NCI-H2126 | 0.892 | 0.793 | 0.858 | 0.709 | 0.806 | 0.584 | 0.6 | 0.615 | 0.538 | 0.398 | 0.647 | 0.578 | 0.562 | 0.57 | 0.562 | 0.524 | 0.528 | 0.525 | 0.543 | 0.455 |
| NCI-H2170 | 0.671 | 0.515 | 0.584 | 0.573 | 0.354 | 0.848 | 0.845 | 1.03 | 1 | 0.702 | 0.478 | 0.478 | 0.498 | 0.497 | 0.484 | 0.4 | 0.431 | 0.447 | 0.41 | 0.366 |
| NCI-H2347 | 0.972 | 0.586 | 0.776 | 0.861 | 0.721 | 0.275 | 0.312 | 0.283 | 0.298 | 0.286 | 0.599 | 0.619 | 0.583 | – | 0.531 | 0.357 | 0.382 | 0.388 | 0.393 | – |
| NCI-H2405 | 1.28 | 0.628 | 1.09 | 1.15 | 0.58 | 0.572 | 0.597 | 0.637 | 0.647 | 0.628 | 0.672 | 0.765 | 0.705 | 0.854 | 0.75 | 0.391 | 0.391 | 0.366 | 0.381 | 0.228 |
| NCI-H3122 | 1.01 | 0.975 | 1.02 | 1.06 | 1.01 | 0.251 | 0.223 | 0.271 | 0.303 | 0.283 | 0.401 | 0.439 | 0.481 | 0.507 | 0.543 | 0.388 | 0.383 | 0.389 | 0.373 | 0.32 |
| PC-3 [JPC-3] | 0.82 | 0.753 | 0.765 | – | 0.612 | 0.672 | 0.83 | 0.75 | 0.717 | 0.599 | 0.93 | – | 0.8 | 1.06 | 0.745 | 0.431 | 0.446 | 0.467 | 0.537 | 0.514 |
| PC-14 | 1.09 | – | 0.985 | – | 0.981 | 0.733 | 0.703 | 0.756 | 0.6 | 0.306 | 0.275 | 0.276 | 0.223 | 0.162 | 0.133 | 0.524 | 0.66 | 0.575 | 0.611 | 0.193 |
| RERF-LC-KJ | 0.902 | – | 0.858 | 0.632 | 0.706 | 0.887 | 0.853 | 0.873 | 0.904 | 0.727 | – | 0.703 | 0.811 | 0.767 | 0.496 | 0.46 | 0.445 | 0.406 | 0.379 | 0.326 |
| SK-LU-1 | 0.792 | 1.09 | 0.974 | 0.548 | 0.161 | 0.425 | 0.469 | 0.53 | 0.508 | 0.367 | 0.607 | 0.58 | 0.61 | 0.705 | 0.549 | 0.382 | 0.59 | 0.653 | 0.68 | 0.467 |
| SK-MES-1 | 1.18 | 1.27 | 1.19 | 1.01 | 0.949 | 0.57 | 0.616 | 0.49 | 0.428 | 0.304 | 0.348 | 0.353 | 0.39 | 0.39 | 0.3 | 0.699 | 0.624 | 0.645 | 0.643 | 0.427 |
| SW 1573 | 1.26 | 0.927 | 0.947 | 0.843 | 0.674 | 0.542 | 0.522 | 0.594 | 0.427 | 0.262 | 0.465 | 0.529 | – | 0.522 | 0.338 | 0.466 | 0.37 | 0.392 | 0.389 | 0.306 |
| UMC-11 | 0.392 | 0.345 | 0.367 | 0.301 | 0.216 | 0.723 | 0.738 | 0.696 | 0.683 | 0.403 | 0.568 | 0.618 | 0.594 | 0.545 | 0.544 | 0.337 | 0.348 | 0.398 | 0.33 | 0.232 |
